This is an account of results in patent publication US11998566B1, “Method of synthesizing a silver nanoparticle composition using an extract of Salsola tetrandra” (KING FAISAL UNIVERSITY, priority 2023, dated 2024).

In test [1] the test system is A. fumigatus. As to the kind of experiment: light microscopy of mycelial growth / germination. It is filed as cell-based, Aspergillus fumigatus. The note with it: FIG. 2C. Here is the method: FIGS. 2A-2C show differences in the mycelial growth of A. fumigatus in 2A) control 2B) following exposure to ST-AgNPs and 2C) following exposure to amphotericin B. (conventional antifungal agent).
(§1) Several preliminary in vitro experiments were performed to confirm the potent antifungal potential of the green biosynthesized silver nanoparticles (ST-AgNPs) against A. fumigatus. […] Additionally, the inhibitory effect of the antifungals AMB and ST-AgNPs was also examined using light microscopy (FIGS. 2A-2C).

Test [2] relates to A. fumigatus. As to the kind of experiment: time kill assay. In kind it is cell-based, Aspergillus fumigatus. The following applies: 50 μg/mL; exposure for 24 hours; FIG. 1. Here is the method: FIG. 1 is a graph showing time-kill curves of A. fumigatus following exposure to ST-AgNPs and amphotericin B for 24 hours (values are expressed as means±SD)
as §1

Structures are written as SMILES.

On to `C[C@@H]1[C@H](O)[C@@H](C)/C=C/C=C/C=C/C=C/C=C/C=C/C=C/[C@H](O[C@@H]2O[C@H](C)[C@@H](O)[C@H](N)[C@@H]2O)C[C@@H]2O[C@](O)(C[C@@H](O)C[C@@H](O)[C@H](O)CC[C@@H](O)C[C@@H](O)CC(=O)O[C@H]1C)C[C@H](O)[C@H]2C(=O)O` [amphotericin B], for which the mycelial growth entry with A. fumigatus [1] is given as “substantially reduced”. Further, in the test with A. fumigatus [2], the “action on the growth of Aspergillus cells (time kill assay)” value is “fungistatic action”.
